Each structure is given as a SMILES string.

As usually defined, the IC50 is the concentration at which inhibition is half-maximal.

T1 sequence (P15056 whole entry): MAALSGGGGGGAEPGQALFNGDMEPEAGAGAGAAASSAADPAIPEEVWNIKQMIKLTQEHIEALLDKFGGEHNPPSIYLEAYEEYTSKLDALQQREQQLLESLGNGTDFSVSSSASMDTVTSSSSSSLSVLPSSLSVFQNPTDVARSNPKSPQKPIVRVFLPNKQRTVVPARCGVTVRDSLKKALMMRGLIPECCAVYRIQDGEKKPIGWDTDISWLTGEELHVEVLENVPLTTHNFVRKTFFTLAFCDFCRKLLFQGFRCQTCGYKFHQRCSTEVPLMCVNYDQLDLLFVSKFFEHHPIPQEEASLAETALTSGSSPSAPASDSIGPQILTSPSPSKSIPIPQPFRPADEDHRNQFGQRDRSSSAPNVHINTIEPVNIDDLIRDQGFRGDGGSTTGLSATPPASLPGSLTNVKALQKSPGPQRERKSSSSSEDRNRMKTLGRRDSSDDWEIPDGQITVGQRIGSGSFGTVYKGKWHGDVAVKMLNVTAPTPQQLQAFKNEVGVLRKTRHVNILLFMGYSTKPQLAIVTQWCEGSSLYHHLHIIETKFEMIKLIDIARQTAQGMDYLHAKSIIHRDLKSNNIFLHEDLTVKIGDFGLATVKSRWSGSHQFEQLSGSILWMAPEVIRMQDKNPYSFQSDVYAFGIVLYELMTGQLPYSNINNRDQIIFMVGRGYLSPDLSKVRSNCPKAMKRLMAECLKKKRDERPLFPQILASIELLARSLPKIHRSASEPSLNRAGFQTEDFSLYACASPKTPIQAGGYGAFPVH

This assay has as its target T1, Flag/GST-tagged recombinant human B-Raf (Homo sapiens, UniProt P15056).
T1 construct: Flag; GST; made in house; host or cells: Sf9 insect cells (B-Raf); E. coli (MEK1-GST)
In words: B-Raf kinase assay (phosphorylation of GST-MEK1, phospho-MEK1 antibody/Europium detection). The settings on record: B-Raf IC50 Data for compounds of Formula A; read-out: Mean IC50. It is filed as biochemical. The protocol: B-Raf1 Kinase Assay Procedure: B-Raf-1 is used to phosphorylate GST-MEK1.
• 1. Assay Dilution Buffer (ADB): 20 mM MOPS, pH 7.2, 25 mM β-glycerol phosphate, 5 mM EGTA, 1 mM sodium orthovanadate, 1 mM dithiothreitol, 0.01% Triton X-100. • 2. Magnesium/ATP Cocktail: ADB solution (minus Triton X-100) plus 200 μM cold ATP and 40 mM magnesium chloride. • 4. Active Kinase: Active B-Raf: Used at 0.2 nM per assay point. • 5. […] TBST—Tris (50 mM, pH 7.5), NaCl (150 mM), Tween-20 (0.05%) • 7. Anti-GST Ab (GE) • 8. Anti pMEK Ab (Upstate) • 9. Anti-rabbit Ab/Europium conjugate (Wallac).
B-Raf Assay Procedure: • 1. Added 25 μL of ADB containing B-Raf and Mek per assay (i.e. per well of a 96 well plate) • 2. Added 25 μL of 0.2 mM ATP and 40 mM magnesium chloride in Magnesuium/ATP Cocktail. • 3. Incubated for 45 minutes at RT with occasional shaking. • 4. Transferred this mixture to an anti-GST Ab coated 96 well plate (Nunc Immunosorb plates coated o/n with a-GST. Plate freshly washed 3×with TBS-T before use. • 5. Incubated o/n at […] in cold room. • 6. Washed 3× with TBST, ed Anti-Phospho MEK1 (1:1000, dilution depended upon lot) • 7. Incubated for 60 minutes at RT in a shaking incubator • 8. Washed 3× with TBST, add Anti-rabbit Ab/Europium conjugate (Wallac) (1:500, dilution depended upon lot) • 9. Incubated for 60 minutes at RT on a platform shaker. • 10. Washed plate 3× with TBS-T • 11. Added 100 μL of Wallac Delfia Enhancement Solution and agitated for 10 minutes. • 12. Read plates in Wallac Victor model Plate Reader. • 13.
The % inhibition was determined for each compound concentration.
Consider `CN1C[C@@H]2C[C@H]1CN2c1ccc(-c2ccnc3c(-c4ccc(F)c5[nH]ncc45)c(-c4ccncc4)nn23)cn1` [Example 42, 3-(7-Fluoro-1H-indazol-4-yl)-7-(6-((1S,4S)-5-methyl-2,5-diazabicyclo[2.2.1]heptan-2-yl)pyridin-3-yl)-2-(pyridin-4-yl)pyrazolo[1,5-a]pyrimidine], for which the IC50 worked out at 0.4 nM. `CN1C[C@@H]2C[C@H]1CN2c1ccc(-c2ccnc3c(-c4cccc(C(N)=O)c4)c(-c4ccncc4)nn23)cn1` [Example 43, 3-(7-(6-((1S,4S)-5-Methyl-2,5-diazabicyclo[2.2.1]heptan-2-yl)pyridin-3-yl)-2-(pyridin-4-yl)pyrazolo[1,5-a]pyrimidin-3-yl)benzamide]: the IC50 stood at 134 nM. As for `Cc1cc(N2C[C@@H]3C[C@H]2CN3)ccc1-c1ccnc2c(-c3cccc4[nH]ncc34)c(-c3ccncc3)nn12` [Example 44, 7-(4-((1S,4S)-2,5-Diazabicyclo[2.2.1]heptan-2-yl)-2-methylphenyl)-3-(1H-indazol-4-yl)-2-(pyridin-4-yl)pyrazolo[1,5-a]pyrimidine], the figure is 0.6 nM; as for `Cc1cc(N2C[C@@H]3C[C@H]2CN3C)ccc1-c1ccnc2c(-c3cccc4[nH]ncc34)c(-c3ccncc3)nn12` [Example 45, 3-(1H-Indazol-4-yl)-7-(2-methyl-4-((1S,4S)-5-methyl-2,5-diazabicyclo[2.2.1]heptan-2-yl)phenyl)-2-(pyridin-4-yl)pyrazolo[1,5-a]pyrimidine], less than 0.3 nM. Turning to `Fc1ccc(-c2ccnc3c(-c4cccc5[nH]ncc45)c(-c4ccncc4)nn23)c(N2C[C@@H]3C[C@H]2CN3)c1` [Example 46, 7-(2-((1S,4S)-2,5-Diazabicyclo[2.2.1]heptan-2-yl)-4-fluorophenyl)-3-(1H-indazol-4-yl)-2-(pyridin-4-yl)pyrazolo[1,5-a]pyrimidine], the IC50 stood at 3.2 nM. For the compound `CN1C[C@@H]2C[C@H]1CN2c1cc(F)ccc1-c1ccnc2c(-c3cccc4[nH]ncc34)c(-c3ccncc3)nn12` [Example 47, 7-(4-Fluoro-2-((1S,4S)-5-methyl-2,5-diazabicyclo[2.2.1]heptan-2-yl)phenyl)-3-(1H-indazol-4-yl)-2-(pyridin-4-yl)pyrazolo[1,5-a]pyrimidine], the half-maximal inhibitory concentration (IC50) was found to be 0.8 nM. Regarding `COc1cc(-c2c(-c3ccncc3)nn3c(-c4ccc(F)cc4N4C[C@@H]5C[C@H]4CN5C(=O)OC(C)(C)C)ccnc23)ccc1Cl` [Example 48, (1S,4S)-tert-Butyl 5-(2-(3-(4-chloro-3-methoxyphenyl)-2-(pyridin-4-yl)pyrazolo[1,5-a]pyrimidin-7-yl)-5-fluorophenyl)-2,5-diazabicyclo[2.2.1]-heptane-2-carboxylate], the IC50 is greater than 1000 nM.

Regarding `COc1cc(-c2c(-c3ccncc3)nn3c(-c4ccc(F)cc4N4C[C@@H]5C[C@H]4CN5)ccnc23)ccc1Cl` [Example 49, 7-(2-((1S,4S)-2,5-Diazabicyclo[2.2.1]heptan-2-yl)-4-fluorophenyl)-3-(4-chloro-3-methoxyphenyl)-2-(pyridin-4-yl)pyrazolo[1,5-a]pyrimidine], the IC50 was 255 nM. As for `COc1cc(-c2c(-c3ccncc3)nn3c(-c4ccc(F)cc4N4C[C@@H]5C[C@H]4CN5C)ccnc23)ccc1Cl` [Example 50, 3-(4-Chloro-3-methoxyphenyl)-7-(4-fluoro-2-((1S,4S)-5-methyl-2,5-diazabicyclo[2.2.1]heptan-2-yl)phenyl)-2-(pyridin-4-yl)pyrazolo[1,5-a]pyrimidine], the figure is greater than 1000 nM; as for `c1cc(-c2c(-c3ccncc3)nn3c(-c4ccc(N5C[C@@H]6C[C@H]5CN6)cc4)ccnc23)c2cn[nH]c2c1` [Example 51, 7-(4-((1S,4S)-2,5-Diazabicyclo[2.2.1]heptan-2-yl)phenyl)-3-(1H-indazol-4-yl)-(pyridin-4-yl)pyrazolo[1,5-a]pyrimidine], 0.8 nM.
